According to patent US9919060B2 (University Court of the University of Dundee, priority 2009, dated 2018):
“Also recorded” adds a separate entry of the source.

Key:
[1] = system: human liver microsomes (HLM); experiment: Fragmentation of benzofuran ether and carbamate linked coumarins by pooled human liver microsomes (coumarin anion release); conditions: for Specific fragmentation activity, HLM: 60 μl HLM in 1.5 ml final reaction volume, NADPH, pH 7.4, mean ± standard deviation of three measurements
Procedure: (§1) Supersomal™ enzyme metabolism was started by adding a stock solution of prodrug dissolved in DMSO to give a final concentration of 10 μmol dm^−3 prodrug and 0.5% DMSO. HLM screening used 60 microliter microsomes, 100 μmol dm^−3 NADPH, in 10 mmol dm^−3 potassium phosphate buffer at pH 7.4 and 37 OC, in 1.5 ml total reaction volume.
(§2) Therefore, enzymatic hydroxylation of the hetero-aromatic trigger and resultant linker fragmentation can be monitored in real time by release of the coumarin anion by kinetic fluorimetry.
(§3) Release of the coumarin anion indicative of linker fragmentation was monitored using a 1 cm path length fluorescence cell in a Cary Eclipse kinetic flourimeter with excitation and emission slits set at 5 nm. Coumarin anion release from compounds of the invention was detected at the excitation wavelength λex=350·nm and the emission wavelength λem=450 nm. Change in fluorescence intensity was quantified against a linear calibration plot of fluorescence intensity versus coumarin concentration (0 to 3.5 μmol dm^−3) in 10 mmol dm^−3 potassium phosphate buffer at pH 7.4 using the same instrument settings as for enzyme metabolism.

CYP1A2 = biological target: T1, CYP1A2 (Homo sapiens, UniProt P05177); experiment: Fragmentation of benzofuran ether and carbamate linked coumarins by Supersomal CYP1A2 (coumarin anion release, kinetic fluorimetry); type: biochemical; conditions: 10 pmol enzyme, 10 μmol dm^−3 prodrug, NADPH, pH 7.4, 37° C., mean ± standard deviation of three measurements
T1 construct: purchased BD Gentest, Oxford, UK
T1 sequence (P05177 2-516 limits assumed): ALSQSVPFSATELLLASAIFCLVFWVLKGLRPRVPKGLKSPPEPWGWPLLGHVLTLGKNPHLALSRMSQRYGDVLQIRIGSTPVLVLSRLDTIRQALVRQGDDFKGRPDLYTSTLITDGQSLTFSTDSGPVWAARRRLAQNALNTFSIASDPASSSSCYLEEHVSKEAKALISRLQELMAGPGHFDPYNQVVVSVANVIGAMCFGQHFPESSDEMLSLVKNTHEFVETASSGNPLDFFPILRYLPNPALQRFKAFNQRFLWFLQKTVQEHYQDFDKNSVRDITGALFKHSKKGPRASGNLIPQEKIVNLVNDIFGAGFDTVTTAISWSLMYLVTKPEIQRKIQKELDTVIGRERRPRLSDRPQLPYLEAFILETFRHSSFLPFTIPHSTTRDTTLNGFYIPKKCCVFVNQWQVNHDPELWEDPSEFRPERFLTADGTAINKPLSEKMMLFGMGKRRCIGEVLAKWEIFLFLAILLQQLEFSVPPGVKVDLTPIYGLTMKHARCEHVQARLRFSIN
Procedure: as §1, §2, §3

CYP1A1 = biological target: T2, CYP1A1 (Homo sapiens, UniProt P04798); experiment: Fragmentation of benzofuran ether and carbamate linked coumarins by Supersomal CYP1A1 (coumarin anion release, kinetic fluorimetry); type: biochemical; design: purchased BD Gentest, Oxford, UK; conditions: 10 pmol enzyme, 10 μmol dm^−3 prodrug, NADPH, pH 7.4, 37° C., mean ± standard deviation of three measurements
T2 sequence (P04798 1-512): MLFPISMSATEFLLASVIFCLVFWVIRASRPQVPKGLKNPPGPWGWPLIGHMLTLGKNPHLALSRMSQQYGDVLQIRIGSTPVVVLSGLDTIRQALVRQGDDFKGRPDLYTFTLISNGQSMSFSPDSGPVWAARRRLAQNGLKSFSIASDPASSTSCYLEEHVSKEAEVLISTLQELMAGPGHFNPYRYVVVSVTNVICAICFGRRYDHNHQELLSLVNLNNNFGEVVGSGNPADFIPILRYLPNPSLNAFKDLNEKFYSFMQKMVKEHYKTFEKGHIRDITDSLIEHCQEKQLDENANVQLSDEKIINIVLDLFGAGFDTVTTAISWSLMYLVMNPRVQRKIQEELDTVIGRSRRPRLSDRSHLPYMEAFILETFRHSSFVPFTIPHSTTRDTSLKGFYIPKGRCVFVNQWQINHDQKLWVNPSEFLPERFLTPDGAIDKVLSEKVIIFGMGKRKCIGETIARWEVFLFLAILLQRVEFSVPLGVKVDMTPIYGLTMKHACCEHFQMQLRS
Procedure: as §1, §2, §3

CYP1B1 [2] = biological target: T3, CYP1B1 (Homo sapiens, UniProt Q16678); experiment: Fragmentation of benzofuran ether and carbamate linked coumarins by Supersomal CYP1B1 (coumarin anion release, kinetic fluorimetry); type: biochemical; design: purchased BD Gentest, Oxford, UK; conditions: 10 pmol enzyme, 10 μmol dm^−3 prodrug, NADPH, pH 7.4, 37° C., mean ± standard deviation of three measurements
T3 sequence (Q16678 1-543): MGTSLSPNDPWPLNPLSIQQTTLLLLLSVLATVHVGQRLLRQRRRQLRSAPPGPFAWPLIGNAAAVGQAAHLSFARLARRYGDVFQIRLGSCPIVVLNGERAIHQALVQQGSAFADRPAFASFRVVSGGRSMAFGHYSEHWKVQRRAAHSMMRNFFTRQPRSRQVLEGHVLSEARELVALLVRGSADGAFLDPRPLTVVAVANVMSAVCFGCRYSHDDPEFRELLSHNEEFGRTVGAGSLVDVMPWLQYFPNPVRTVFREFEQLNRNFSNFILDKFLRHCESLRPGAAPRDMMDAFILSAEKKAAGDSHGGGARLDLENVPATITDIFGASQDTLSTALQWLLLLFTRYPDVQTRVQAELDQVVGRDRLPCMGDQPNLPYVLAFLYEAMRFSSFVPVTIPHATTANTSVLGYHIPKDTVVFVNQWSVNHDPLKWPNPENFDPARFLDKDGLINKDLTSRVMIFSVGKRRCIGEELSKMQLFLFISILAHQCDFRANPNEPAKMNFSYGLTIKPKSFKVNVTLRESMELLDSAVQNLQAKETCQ
Procedure: as §1, §2, §3

CYP1B1 [3] = biological target: T3, CYP1B1; experiment: CYP1B1 substrate prediction model (Gaussian Kernel weighted k-NN)
[4] = system: UTSCC-14 primary human tumour xenograft; experiment: Anti-tumour activity in primary human tumour xenograft model (UTSCC-14, subcutaneous, nude mice); type: in vivo; conditions: for Tumour growth delay at 28 days: 2 cycles: daily for 5 days/2 days off
Procedure: Primary UTSCC-14 cell lines 3×10^6 were implanted subcutaneously in the flank of nude mice. Mice were randomized to 10 animals per group when the tumour volume was 100 to 150 mm^3. SU046-04 was given intraperitoneally at 12, 25 and 50 mg/Kg in PBS versus versus vehicle alone for 2 cycles: daily for 5 days/2 days off. Tumour volume was measured every 4 days using calipers. […] Tumour growth delay at 28 days was 31% at 12 mg/Kg, 56% at 25 mg/Kg, and 90% at 50 mg/Kg with 4/10 complete responses.

SMILES	Specific fragmentation activity, HLM [1]	Specific fragmentation activity, CYP1A2 (CYP1A2)	% CYP1B1 substrate inhibition, accuracy (predicted versus actual) (CYP1B1 [3]) [%]	further results
Cc1cc(=O)oc2cc(OCc3cc4ccccc4o3)ccc12 [SU010A, 7-(benzofuran-2-ylmethoxy)-4-methyl-2H-chromen-2-one]				Specific fragmentation activity, HLM ([1]; listed as SU10A): fragmented; Specific fragmentation activity, CYP1A2 (CYP1A2; listed as SU10A): fragmented; Specific fragmentation activity, CYP1A1 (CYP1A1; listed as SU10A): fragmented; Specific fragmentation activity, CYP1B1 (CYP1B1 [2]; listed as SU10A): fragmented
Cc1cc(=O)oc2cc(NC(=O)OCc3cc4ccccc4o3)ccc12 [SU018-03, benzofuran-2-ylmethyl 4-methyl-2-oxo-2H-chromen-7-ylcarbamate]	no release	no release		Specific fragmentation activity, CYP1B1 (CYP1B1 [2]): no release
COc1cc(OC)c2oc(COP(=O)(NCCCl)NCCCl)cc2c1 [SU025-04]			96	
COc1cc(OC)c2oc(COP(=O)(NCCBr)NCCBr)cc2c1 [SU046-04]			96	Tumour growth delay at 28 days ([4]; 12 mg/Kg intraperitoneally): 31%; Tumour growth delay at 28 days ([4]; 25 mg/Kg intraperitoneally): 56%; Tumour growth delay at 28 days ([4]; 50 mg/Kg intraperitoneally): 90%; Complete responses ([4]; 50 mg/Kg intraperitoneally, 10 animals per group): 4/10; Adverse effects and body weight loss ([4]; after highest exposure 250 mg/Kg): No observed adverse effects or significant body weight loss; Tumour growth compared to the vehicle alone ([4]; all three treatment arms: 12, 25 and 50 mg/Kg intraperitoneally): significant inhibition of tumour growth
Cc1cc(=O)oc2cc(OCc3cc4cc(F)cc(F)c4o3)ccc12 [VG016-05, 7-((5,7-difluorobenzofuran-2-yl)methoxy)-4-methyl-2H-chromen-2-one]	no release	no release	82	Specific fragmentation activity, CYP1A1 (CYP1A1): no release; Specific fragmentation activity, CYP1B1 (CYP1B1 [2]): no fragmentation of the linker; also recorded: no release; Specific fragmentation activity, CYP1B1 (CYP1B1 [2]; listed as VG016-04): inhibits CYP1 isoenzyme and HLM-induced fragmentation
COc1ccc2oc(COC(=O)Nc3ccc4c(C)cc(=O)oc4c3)cc2c1 [VG032-05, (5-methoxybenzofuran-2-yl)methyl 4-methyl-2-oxo-2H-chromen-7-ylcarbamate]		no release		
COc1cc(OC)c2oc(COc3ccc4c(C)cc(=O)oc4c3)cc2c1 [VG035-05, 7-((5,7-dimethoxybenzofuran-2-yl)methoxy)-4-methyl-2H-chromen-2-one]	no linker fragmentation; also recorded: no release	no linker fragmentation; also recorded: no release	96	Specific fragmentation activity, CYP1A1 (CYP1A1): no linker fragmentation; also recorded: no release
Cc1cc(=O)oc2cc(NC(=O)OCc3cc4cc(Br)ccc4o3)ccc12 [VG036-05, (5-bromobenzofuran-2-yl)methyl 4-methyl-2-oxo-2H-chromen-7-ylcarbamate]	no release	no release		Specific fragmentation activity, CYP1A1 (CYP1A1): no release; Specific fragmentation activity, CYP1B1 (CYP1B1 [2]): no release
COc1cc(OC)c2oc(COC(=O)Nc3ccc4c(C)cc(=O)oc4c3)cc2c1 [VG041-05, (5,7-dimethoxybenzofuran-2-yl)methyl 4-methyl-2-oxo-2H-chromen-7-ylcarbamate]	no release	no release		Specific fragmentation activity, CYP1B1 (CYP1B1 [2]): not CYP1A2 or CYP1B1; also recorded: no release
CCOc1ccc2nc3ccc(=O)cc-3oc2c1 [ethoxyresorufin, 7-ethoxyresorufin]			95	
C=C[C@H]1C[N@@]2CC[C@H]1C[C@@H]2[C@@H](O)c1ccnc2ccc(OC)cc12 [quinidine]			64	
Oc1ccc(C=Cc2cc(O)cc(O)c2)cc1 [resveratrol]			95	
Nc1ccc(S(=O)(=O)Nc2ccnn2-c2ccccc2)cc1 [sulfaphenazole]			68	
O=c1cc(-c2ccccc2)oc2c1ccc1ccccc12 [α-napthoflavone, α-naphthoflavone, reference compound]				Effect of α-naphthoflavone on HLM-mediated SU10A fragmentation (coumarin release) ([1]; HLM, inclusion of 10 μmol dm^−3 α-naphthoflavone): inhibits SU10A fragmentation
C[C@]12CC[C@@H]3c4ccc(O)cc4CC[C@H]3[C@@H]1CC[C@@H]2O [β-estradiol]			95	
